Counter-ions that a name gives are not always drawn.
Key:
T-24 = assay: Anticancer activity against human T-24 cells assessed as inhibition of cell growth incubated for 48 hrs by MTT assay; assay type: functional, cell-based; details: T-24, 48 h
HeLa = assay: Anticancer activity against human HeLa cells assessed as inhibition of cell growth incubated for 48 hrs by MTT assay; assay type: functional, cell-based
HepG2 = assay: Anticancer activity against human HepG2 cells assessed as inhibition of cell growth incubated for 48 hrs by MTT assay; assay type: functional, cell-based; details: HepG2, 48 h
[1] = Cytotoxicity against human LO2 cells assessed as reduction in cell viability incubated for 48 hrs by MTT assay; assay type: toxicity, cell-based, L02
MGC-803 = assay: Anticancer activity against human MGC-803 cells assessed as inhibition of cell growth incubated for 48 hrs by MTT assay; assay type: functional, cell-based; details: MGC-803, 48 h

| SMILES | IC50 (HeLa) [µM] | IC50 (HepG2) [µM] | IC50 (MGC-803) [µM] | IC50 (T-24) [µM] | IC50 at 48 h [1] [µM] |
| --- | --- | --- | --- | --- | --- |
| CC(C)c1ccc2c(c1)CC[C@H]1[C@](C)(C(=O)OCc3cn(CC4CN(c5ccccc5Br)C(=O)O4)nn3)CCC[C@]21C (stereo not given in full) | 30.9 | 67.8 | 6.47 | 9.62 | 20.3 |
| CC(C)c1ccc2c(c1)CC[C@H]1[C@](C)(C(=O)OCc3cn(CC4CN(c5ccc(N6CCOCC6)c(F)c5)C(=O)O4)nn3)CCC[C@]21C (stereo not given in full) | 36.6 | 28.7 | 26.1 | 63.6 | > 100 |
| CC(C)c1ccc2c(c1)CC[C@H]1[C@](C)(C(=O)OCc3cn(CC4CN(c5cccc([N+](=O)[O-])c5)C(=O)O4)nn3)CCC[C@]21C (stereo not given in full) | 30.9 | 13 | 21.2 | > 100 | 25.9 |
| CC(C)c1ccc2c(c1)CC[C@H]1[C@](C)(C(=O)OCc3cn(CC4CN(c5ccccc5)C(=O)O4)nn3)CCC[C@]21C (stereo not given in full) | 36.1 | 18 | 12.8 | > 100 | 20.8 |
| CC(C)c1ccc2c(c1)CC[C@H]1[C@](C)(C(=O)O)CCC[C@]21C [DEHYDROABIETIC ACID] | 30.4 | 80.4 | > 100 | > 100 | > 100 |
| Cc1cccc(N2CC(Cn3cc(COC(=O)[C@]4(C)CCC[C@]5(C)c6ccc(C(C)C)cc6CC[C@@H]45)nn3)OC2=O)c1 (stereo not given in full) | 59.5 | 23.5 | 24.7 | 44.5 | 51.5 |
| CC(C)c1ccc2c(c1)CC[C@H]1[C@](C)(C(=O)OCc3cn(CC4CN(c5ccc(F)cc5)C(=O)O4)nn3)CCC[C@]21C (stereo not given in full) | 46.7 | 45.8 | 12.7 | 55.1 | 41.6 |
| CC(C)c1ccc2c(c1)CC[C@H]1[C@](C)(C(=O)OCc3cn(CC4CN(c5cccc(F)c5)C(=O)O4)nn3)CCC[C@]21C (stereo not given in full) | 32.8 | 24.7 | 25.8 | 62.1 | 29.1 |
| CC(C)c1ccc2c(c1)CC[C@H]1[C@](C)(C(=O)OCc3cn(CC4CN(c5ccc(Cl)cc5)C(=O)O4)nn3)CCC[C@]21C (stereo not given in full) | 24.7 | 18.1 | 16.3 | 36.4 | 24.3 |

These reach a lower IC50 (HeLa). Values come first.

| IC50 (HeLa) [µM] | IC50 (HepG2) [µM] | IC50 (MGC-803) [µM] | SMILES | IC50 (T-24) [µM] | IC50 at 48 h [1] [µM] |
| --- | --- | --- | --- | --- | --- |
| 9.35 | 32 | 17.4 | CC(C)c1ccc2c(c1)CC[C@H]1[C@](C)(C(=O)OCc3cn(CC4CN(c5ccc(F)c(F)c5)C(=O)O4)nn3)CCC[C@]21C (stereo not given in full) | 26.5 | 23.4 |
| 20.5 | 12.6 | 21.6 | CC(C)c1ccc2c(c1)CC[C@H]1[C@](C)(C(=O)OCc3cn(CC4CN(c5cccc(Br)c5)C(=O)O4)nn3)CCC[C@]21C (stereo not given in full) | 42.6 | 47.6 |
| 15 | 77.1 | 24.5 | CC(C)c1ccc2c(c1)CC[C@H]1[C@](C)(C(=O)OCc3cn(CC4CN(c5ccccc5[N+](=O)[O-])C(=O)O4)nn3)CCC[C@]21C (stereo not given in full) | 27.5 | 76.4 |
| 21.7 | 23.9 | 22.4 | CC(C)c1ccc2c(c1)CC[C@H]1[C@](C)(C(=O)OCc3cn(CC4CN(c5ccc(N6CCOCC6)cc5)C(=O)O4)nn3)CCC[C@]21C (stereo not given in full) | 70.9 | 21.4 |
| 14 | 13.6 | 11 | CC(C)c1ccc2c(c1)CC[C@H]1[C@](C)(C(=O)OCc3cn(CC4CN(c5ccccc5Cl)C(=O)O4)nn3)CCC[C@]21C (stereo not given in full) | 70.4 | 21.4 |
| 0.78 | 3.43 | 2.4 | COc1cccc2c1C(=O)c1c(O)c3c(c(O)c1C2=O)C[C@@](O)(C(=O)CO)C[C@@H]3O[C@H]1C[C@H](N)[C@H](O)[C@H](C)O1 [DOXORUBICIN HYDROCHLORIDE] | 1.76 | 23.5 |
| 16.6 | 20.2 | 20.7 | CC(C)c1ccc2c(c1)CC[C@H]1[C@](C)(C(=O)OCc3cn(CC4CN(c5ccccc5F)C(=O)O4)nn3)CCC[C@]21C (stereo not given in full) | > 100 | 48.2 |
| 6.94 | 47.9 | 17.6 | CC(C)c1ccc2c(c1)CC[C@H]1[C@](C)(C(=O)OCc3cn(CC4CN(c5cccc(Cl)c5)C(=O)O4)nn3)CCC[C@]21C (stereo not given in full) | > 100 | 23.9 |
| 16.6 | 32.3 | 24.8 | COc1cc(N2CC(Cn3cc(COC(=O)[C@]4(C)CCC[C@]5(C)c6ccc(C(C)C)cc6CC[C@@H]45)nn3)OC2=O)cc(OC)c1OC (stereo not given in full) | 12.2 | 22.7 |
| 2.63 | 26.8 | 11.1 | Cc1ccc(N2CC(Cn3cc(COC(=O)[C@]4(C)CCC[C@]5(C)c6ccc(C(C)C)cc6CC[C@@H]45)nn3)OC2=O)cc1 (stereo not given in full) | > 100 | 71.7 |
| 7.76 | 31 | 7.16 | COc1ccc(N2CC(Cn3cc(COC(=O)[C@]4(C)CCC[C@]5(C)c6ccc(C(C)C)cc6CC[C@@H]45)nn3)OC2=O)cc1 (stereo not given in full) | 18.8 | 31.1 |
| 6.44 | 15.6 | 12.6 | Cc1ccccc1N1CC(Cn2cc(COC(=O)[C@]3(C)CCC[C@]4(C)c5ccc(C(C)C)cc5CC[C@@H]34)nn2)OC1=O (stereo not given in full) | 17.1 | 67.3 |

Source: ChEMBL document CHEMBL5376026, “Design, synthesis, and antiproliferative evaluation of novel dehydroabietic acid-1,2,3-triazole-oxazolidinone hybrids” (RSC Med Chem, 2024)
